Assays:
[1] = (§1) MMV: Anti-babesial activity assay. Parasite pRBCs at 1% parasitemia were cultivated in 100 ul with 96-well plates at 2.5% and 5% hematocrits. The parasites were cultivated in triplicate for 4 days without replacement of the medium for each concentration of the compound.; format: functional, Babesia bigemina
[2] = as §1; format: functional, Babesia caballi
[3] = as §1; format: functional, Babesia equi
[4] = as §1; format: functional, Babesia bovis

Row | SMILES | IC50 [1] | IC50 [2] | IC50 [3] | IC50 [4]
1 | Cc1sc(NC(=O)c2ccccc2)c(C(c2cccs2)N2CCN(c3ccccc3)CC2)c1C (stereo unspecified) | 0.68 µM | 14.7 µM | 10.7 µM | 1.05 µM
2 | CCOC(=O)c1ccc2nc(-c3ccccc3)cc(O)c2c1 | 14.1 µM | 14.2 µM | > 25 µM | > 25 µM
3 | c1ccc2c(NCCCCCCNc3c4c(nc5ccccc35)CCCC4)c3c(nc2c1)CCCC3 | 2.17 µM | 6.31 µM | 0.5 µM | 0.99 µM
4 | Cc1ccc(-c2cc3nc4c(c(O)n3n2)CCCC4)cc1 | 15 µM | 15.8 µM | 7.05 µM | 7.31 µM
5 | Cc1ccc(Nc2nc(NCCO)c3ccccc3n2)cc1C | 6.36 µM | 5 µM | 2.2 µM | 3.63 µM
6 | Oc1ccccc1CN1CCC2(CCCN(Cc3ccccc3F)C2)C1 (stereo unspecified) | 0.73 µM | 5.06 µM | 0.1 µM | 14.3 µM
7 | N=c1c2ccccc2nnn1-c1cccc(C(F)(F)F)c1 | 19.1 µM | 18.1 µM | 9.18 µM | 15 µM
8 | COc1ccc(CCNC(=O)c2cc(S(=O)(=O)N3CC(C)CC(C)C3)ccc2Sc2ccc(F)cc2)cc1OC (stereo unspecified) | 0.086 µM | 0.13 µM | 12.7 µM | 1 µM
9 | O=c1c2c([nH]c3ccccc13)CCCC2 | 5.93 µM | 4.09 µM | 4.27 µM | 2.45 µM
10 | O=C(Nc1ccc(Cl)cc1C(=O)Nc1ccncc1)c1ccc(Cl)cc1Cl | 19.7 µM | 5.64 µM | 3.61 µM | 10 µM
11 | COc1ccc(C2NCCc3c2[nH]c2ccccc32)cc1CN1CCN(c2ccc(F)cc2)CC1 (stereo unspecified) | 16.5 µM | 10 µM | 10.1 µM | 3.71 µM
12 | Oc1ccccc1CNCC12CC3CC(CC(C3)C1)C2 | 15.9 µM | 10 µM | 13.1 µM | 14.7 µM
13 | COc1ccc(NC(=O)C2c3ccccc3C(=O)N(CC(C)C)C2c2cccs2)cc1Cl (stereo unspecified) | 2.52 µM | 4.69 µM | 6.87 µM | 3.15 µM
14 | CCCOCc1cc(CN2CCN(c3cccc(Cl)c3)CC2)c(O)c2ncccc12 | 3.86 µM | 5.9 µM | 2.95 µM | 1.74 µM
15 | CC(C)c1ccc(CNCC(O)c2ccccc2)cc1 (stereo unspecified) | > 25 µM | 12.4 µM | 10 µM | 14.3 µM
16 | O=c1nc(C=Cc2ccc(Cl)cc2)oc2ccccc12 | > 25 µM | 11.5 µM | 8.25 µM | 14.3 µM
17 | COc1cccc(-c2nn(C)c3sc(C(=O)NCCN4CCN(c5ccccc5F)CC4)cc23)c1 | 10 µM | 6.8 µM | 5.93 µM | 2.06 µM
18 | Nc1ccc(-c2nc3cc(Cc4ccc5[nH]c(-c6ccc(N)cc6)nc5c4)ccc3[nH]2)cc1 | 9.04 µM | 1 µM | 0.8 µM | 0.086 µM
19 | CCn1c2c(c(=N)c3c1CCC3)CCCC2 | 0.082 µM | 0.44 µM | 15 µM | 0.052 µM
20 | O=C(Nc1ccccc1O)c1ccc(Oc2cccc(C(=O)Nc3ccccc3O)c2)cc1 | 2.86 µM | 19.4 µM | 4.19 µM | 6.45 µM
21 | O=C(CSc1ccc2nnc(-c3cccc(F)c3)n2n1)Nc1ccc2c(c1)OCO2 | 20.2 µM | 18.2 µM | 12.9 µM | 11.9 µM
22 | CCCCCC(=O)N1c2ccccc2N=C2CC(c3ccc(OC)c(OC)c3)CC(O)=C2C1c1ccc(C(F)(F)F)cc1 (stereo unspecified) | 16.2 µM | 14.2 µM | 21.9 µM | > 25 µM

Row | SMILES | IC50 [1] | IC50 [2] | IC50 [3] | IC50 [4]
23 | O=C(CCc1ccccc1)c1ccccc1OCC(O)CN1CCCCC1 (stereo unspecified) | 5.69 µM | 7.26 µM | 10.7 µM | 4.52 µM
24 | CCOc1ccc(CN2CCN(CC(O)COc3ccc(OCC(O)CN4CCN(Cc5ccc(OCC)cc5)CC4)cc3)CC2)cc1 (stereo unspecified) | 0.13 µM | 0.37 µM | 0.45 µM | 0.05 µM
25 | CCc1c(C)c(=N)c2ccccc2n1C | 3.42 µM | 0.26 µM | 7.23 µM | 18.4 µM
26 | CC(C)(C)c1ccc(C2CC3=Nc4ccccc4N(C(=O)c4ccccc4Cl)C(c4ccc(F)cc4)C3=C(O)C2)cc1 (stereo unspecified) | 12 µM | 3.73 µM | 15.2 µM | 21.4 µM
27 | CC1CC(C)CN(C(=O)c2ccc(Cl)cc2Cl)C1 (stereo unspecified) | 14.7 µM | 3.9 µM | 19.4 µM | 6.8 µM
28 | CC1(c2ccccc2)Nc2ccccc2-c2nc3ccccc3n21 (stereo unspecified) | 10 µM | 0.08 µM | 1 µM | 13.8 µM
29 | O=C(NC(c1ccccc1)c1ccc2cccnc2c1O)c1ccccc1 (stereo unspecified) | 0.93 µM | 0.55 µM | 0.47 µM | 1 µM
30 | COc1ccc2nc(C)cc(Nc3ccccc3O)c2c1 | 15.3 µM | 1 µM | 8.83 µM | 25 µM
31 | COc1ccc2nc(N)nc(C)c2c1 | 15.6 µM | 4.19 µM | 3.03 µM | 7.23 µM
32 | COc1ccccc1CNC(=O)C1c2ccccc2C(=O)N(CC(C)C)C1c1cccs1 (stereo unspecified) | 10 µM | 16.8 µM | 10 µM | 8.25 µM
33 | Cc1ccnc(NC(c2cccc(OCc3ccccc3)c2)c2ccc3cccnc3c2O)c1 (stereo unspecified) | 13.8 µM | 4.17 µM | 1.4 µM | 1.9 µM
34 | Cc1ccc(CN2CCC(C(=O)Nc3ccc(-c4cc5ccccc5[nH]4)cc3)CC2)o1 | 3.61 µM | 4.37 µM | 0.33 µM | 5.5 µM
35 | COc1cc(C(=O)Nc2nc3c(cc4c5c(cccc53)CC4)s2)cc(OC)c1OC | 8.04 µM | 5 µM | 4.41 µM | 3.08 µM
36 | Oc1ccc(Br)cc1CN1CCN(Cc2cccc(F)c2)CC1 | > 25 µM | 14.3 µM | 13 µM | 17.3 µM
37 | CCC(C)NCC(O)(c1ccc(Cl)cc1)c1ccc(Cl)cc1 (stereo unspecified) | 1.9 µM | 2.96 µM | 7.67 µM | 25 µM
38 | O=C(Nc1ccc(N2CCN(Cc3ccccc3)CC2)cc1)c1cccs1 | 8.47 µM | 0.08 µM | 3.32 µM | 1.87 µM
39 | CCOC(=O)c1c[nH]c2c(CC)cccc2c1=O | 5.09 µM | 14.6 µM | 13.4 µM | 9.61 µM
40 | COc1cccc(Nc2nc(NCCO)c3ccccc3n2)c1 | 1 µM | 1.3 µM | 4.09 µM | 6.99 µM
41 | COc1ccc(-c2cc3c(nn2)-c2ccccc2C3=O)cc1 | 10 µM | 14.8 µM | 9.18 µM | 0.34 µM
42 | COc1cc(C(=O)ON=C(N)Cc2cccc3ccccc23)cc(OC)c1OC | 12.5 µM | 5.3 µM | 10.1 µM | 13.3 µM
43 | Nc1ccc(-c2nc3cc(Oc4ccc(Oc5ccc6[nH]c(-c7ccc(N)cc7)nc6c5)cc4)ccc3[nH]2)cc1 | 18.9 µM | 4.52 µM | 3.86 µM | 10 µM
44 | O=C1c2ccc3c4c(ccc(c24)C(=O)N1CCCCO)C(=O)N(CCCCO)C3=O | 3.34 µM | 0.53 µM | 0.67 µM | 0.6 µM

— ChEMBL document CHEMBL3301464, “MMV Malaria Box anti-babesial screening”
